Reference: patent US20030039661A1, “Methods, compositions and kits for preserving antigenicity” (priority 2001, published 2003)
Peptide text beside a SMILES is read from it. * marks the point of attachment. Cbz = O=C(OCc1ccccc1)*; CH2F = FC*

Columns and labels:
[1] = tested on: granulocytes in whole blood; assay: Whole blood assay: survival of granulocytes in whole blood by hypodiploid analysis; type: cell-based
Method: The following protocol was followed:
200 μl blood sample/2.8 ml 1× lysis solution in a 15 ml polypropylene conical tube.
Add 20 μl/sample anti-CD32-FITC. Incubate 30 minutes on ice in the dark.
Add 3 ml/sample ice-cold 95% EtOH dropwise while vortexing gently.
Resuspend each sample in 50 μl 5 mg/ml RN'ase. Transfer sample to 900 μl/sample.
50 μg/ml Propidium Iodide in 12×75 mm Falcon polystyrene tubes.
Analyze samples by flow cytometry (argon laser) for forward and side scatter and fluorescence.
Survival of granulocytes in whole blood was measured by hypodiploid analysis in a similar fashion to isolated granulocytes via flow cytometry. ICE/ced-3 inhibitors of the present invention maintained survival of granulocytes in whole blood for 96 hours at room temperature as indicated in the table below: […]

granulocytes [2] = assay: Respiratory burst in isolated neutrophils measured by chemiluminescence (opsonized zymosan); type: cell-based; conditions: FIG. 7
Method: Respiratory Burst in Isolated Neutrophils Measured by Chemiluminescence
Whole blood anticoagulated with Acid Citrate Dextrose (ACD) with a ratio of 1:5 ACD to blood was collected (150 ml).
Neutrophils were isolated as described above.
Opsonized zymosan was prepared by suspending 125 mg zymosan particles in 25 ml pooled human serum (5 mg/ml) and incubating them for 20 minutes at 37° C. Centrifuge the suspension and resuspend the particles in 7 ml of PBS (18 mg/ml) and stored on ice until use (vortex prior to pipetting).
50 ml of a 250 μM solution of Lucigenin (MW 510.5) was prepared by dissolving 6.4 mg of the solid in 50 ml of PBS-G (+Ca, Mg). 10 μl of PBS-G (+Ca, Mg) to the wells in a white 96 well plate.
50 μl of the 250 μM Lucigenin solution was added to the wells in a white 96 well plate.
Cell preparations were obtained from cell culture (concentration at time zero=5.0×10^6 cells/ml) with PBS-G (+Ca, Mg).
20 μl of the neutrophil suspension was suspended to the appropriate wells and the plate was incubated at 37° C. for three minutes. 10 μl of the opsonized zymosan was added to the wells.
The plate was read on the luminometer (Labsystems Luminoskan, Needham Heights, Mass.) for 14 min. at 37° C. in the kinetic mode and record results using the software DeltaSoft.
The ability to undergo the respiratory burst is another measure of granulocyte viability. The respiratory burst is a physiological response of granulocytes to foreign stimuli such as bacteria. In this example, the method for inducing the respiratory burst utilized opsonized bacterial zymosan. The respiratory burst was measured via chemiluminescence.

granulocytes [3] = assay: Granulocyte survival, hypodiploid nuclei by propidium iodide flow cytometry (isolated granulocytes in culture); type: cell-based; conditions: FIG. 6; for IC50: isolated granulocytes cultured at 37° C., read-out: IC50 for granulocyte survival (hypodiploid DNA)
Method: Neutrophil Culture Conditions:
The culture media was as follows: (RPMI 1640; 10% FBS; 10 mM Hepes; 0.2 mM L-glutamine; 25 U/ml penicillin; and […] streptomycin).
Purified neutrophil maintenance was performed under the following conditions: (5×10^6 cells/ml in above culture media; Polystyrene round-bottom 96-well plates; 250 μl/well; and 37° C., 5% CO2/95% air humidified incubator) (Liles et al., Blood 119 (1995) 3181-3188).
Analysis of Hypodiploid Nuclei by Flow Cytometry:
(50 μg/ml propidium iodide (Sigma catalog#P4170); 0.1% Triton X-100; and 0.1 sodium citrate).
Neutrophils were pelleted at 4° C. and the supernate aspirated.
Neutrophils were resuspended in hypotonic fluorochrome solution at a density of 5×10^6 cells/ml. Propidium iodide fluorescence of individual nuclei was evaluated in FL2 and measured on a logarithmic scale while gating on physical parameters in forward and side scatter to exlude cell debris.
At least 10,000 events per sample were collected and the results were evaluated relative to a non-apoptotic neutrophil population. (Liles et al., Blood 119 (1995) 3181-3188).
The present invention provides methods to enhance the ex vivo survival of neutrophils/granulocytes. To establish the ability of compounds to preserve granulocytes in culture, compounds were tested in a number of in vitro assays. One common model to test for effects on granulocyte survival involves separating granulocytes from fresh whole blood, culturing the cells at 37° C. and testing cells for nuclear hypodiploidy at 24 hour intervals (as described in Example 110). The presence of hypodiploid DNA is a measure of apoptosis, and is assessed using a propidium iodide stain via flow cytometry. Compounds of the present invention were incubated with the granulocytes in culture, their effects on granulocyte survival measured, and an IC50 calculated.

motoneurons = conditions: in vitro and in vivo; cited from earlier work
mammary epithelial cells = conditions: in the absence of extracellular matrix; cited from earlier work
T-lymphocyte cell line = conditions: cited from earlier work
[4] = after granulocyte culture for 72 hours
[5] = granulocyte culture for 48 hours

**Q.** Which “Percentage of diploid granulocytes in whole blood” value (“Percentage of diploid granulocytes” below) ([1]; 96 hours at room temperature) does the source give for `Cc1c(C(=O)N[C@H](C(=O)NC(CC(=O)O)C(=O)CF)C(C)C)n(C)c2ccccc12` (some centres unmarked) [Example 43, N-[(1.3-dimethylindole-2-carbonyl)valinyl]-3-amino-4-oxo-5-fluoropentanoic Acid] here?
**A.** 91%

**Q.** And the “Percentage of diploid granulocytes” value ([1]; time zero)?
**A.** 96%

**Q.** What about the “maintenance of the respiratory burst” value (granulocytes [2]; [4]) of the same compound?
**A.** partially maintained

**Q.** And the “maintenance of the respiratory burst” value (granulocytes [2]; [5])?
**A.** substantially maintained

**Q.** For `CC(=O)N[C@H]1CCc2cccc3c2N(C1=O)[C@H](C(=O)N[C@H]1CC(=O)OC1O)C3` (some centres unmarked) [Example 94], which melting point is on record?
**A.** 210 to 215 °C (dec.)

**Q.** With `O=C(O)CC(NC(=O)[C@@H]1Cc2cccc3c2N1C(=O)[C@@H](NC(=O)OCc1ccccc1)CC3)C(=O)CF` (some centres unmarked) [Example 106] as the compound, how does the IC50 (granulocytes [3]) read?
**A.** < 5 µM

**Q.** For `O=C(O)C[C@H](NC(=O)[C@@H]1Cc2cccc3c2N1C(=O)[C@@H](NC(=O)OCc1ccccc1)CC3)C(=O)COP(=O)(c1ccccc1)c1ccccc1` [Example 109, 3-[(2S-cis)-[5-benzyloxycarbonylamino-1,2,3,4,5,6,7-hexahydro-4-oxoazepino[3,2,1-hi]indole-2-carbonyl]amino]-5-(diphenylphosphinyl)oxy-4-oxo-pentanoic Acid], which melting point is on record?
**A.** 109 to 111 °C (dec.)

**Q.** With `O=C1C[C@H](NC(=O)[C@@H]2Cc3cccc4c3N2C(=O)[C@@H](NC(=O)c2ccccc2)CC4)C(O)O1` (some centres unmarked) [Example 100] as the compound, how does the melting point read?
**A.** 204 to 205 °C (dec.)

**Q.** For acetyl-AD-aldehyde, which death of motoneurons (motoneurons) is on record?
**A.** blocked

**Q.** Which results are given for `COC(=O)C[C@H](NC(=O)[C@H](C)NC(=O)[C@@H](NC(=O)OCc1ccccc1)C(C)C)C(=O)CF` [zVADfmk, reference compound] (Cbz-Val-Ala-Asp(OMe)-CH2F)?
**A.** effect on improving granulocyte survival (granulocytes [3]; at 48 hours): weak effect; maintenance of the respiratory burst (granulocytes [2]; time not stated): did not maintain

**Q.** Which melting point does the source give for `O=C1C[C@H](NC(=O)C2CCc3cccc4c3N2C(=O)[C@@H](NC(=O)OCc2ccccc2)CC4)C(O)O1` (some centres unmarked) [Example 103] here?
**A.** 120 to 123 °C (dec.)

**Q.** For `Cc1c(C(=O)N[C@H](C(=O)NC(CC(=O)O)C(=O)COC(=O)c2c(Cl)cccc2Cl)C(C)C)n(C)c2ccccc12` (some centres unmarked) [Example 70, N-[N-(1,3-dimethyl-indole-2-carbonyl)-valinyl]-3-amino-5-(2,6-dichlorobenzoyl)oxy-4-oxo-pentanoic Acid], which IC50 (granulocytes [3]) is on record?
**A.** < 5 µM

**Q.** And the “Percentage of diploid granulocytes” value ([1]; 96 hours at room temperature)?
**A.** 89%

**Q.** What about the “Percentage of diploid granulocytes” value ([1]; time zero) of the same compound?
**A.** 96%

**Q.** And the “maintenance of the respiratory burst” value (granulocytes [2]; [4])?
**A.** partially maintained

**Q.** What about the “maintenance of the respiratory burst” value (granulocytes [2]; [5]) of the same compound?
**A.** substantially maintained

**Q.** With `CC(=O)N[C@@H](CC(=O)O)C(=O)N[C@H]1CCc2cccc3c2N(C1=O)[C@H](C(=O)N[C@H]1CC(=O)OC1O)C3` (some centres unmarked) [Example 82] as the compound, how does the melting point read?
**A.** 160 to 175 °C (dec.)

**Q.** Which “cell death of mammary epithelial cells” value (mammary epithelial cells) does the source give for `CC(C)(C)OC(=O)N[C@@H](CC(=O)OCc1ccccc1)C(=O)CCl` [Boc-D-(benzyl) chloromethylketone] here?
**A.** prevented

**Q.** For `O=C1C[C@H](NC(=O)[C@@H]2Cc3cccc4c3N2C(=O)[C@@H](NC(=O)OCc2ccccc2)CC4)C(O)O1` (some centres unmarked) [Example 78], which melting point is on record?
**A.** 101 to 104 °C

**Q.** With `O=C(CCc1ccccc1)N[C@H]1CCc2cccc3c2N(C1=O)[C@H](C(=O)N[C@H]1CC(=O)OC1O)C3` (some centres unmarked) [Example 91] as the compound, how does the melting point read?
**A.** 78 to 81 °C

**Q.** With `O=C1C[C@H](NC(=O)[C@@H]2Cc3cccc4c3N2C(=O)[C@@H](NC(=O)c2cccc3ccccc23)CC4)C(O)O1` (some centres unmarked) [Example 97] as the compound, how does the melting point read?
**A.** 202 to 203 °C (dec.)

**Q.** With `CC(=O)N[C@@H](CC(=O)O)C(=O)N[C@@H](CCC(=O)O)C(=O)N[C@H](C(=O)N[C@H](C=O)CC(=O)O)C(C)C` [acetyl-DEVD-aldehyde] as the compound, how does the anti-Fas induced apoptosis (T-lymphocyte cell line) read?
**A.** inhibited

**Q.** For `CC(=O)N[C@@H](Cc1ccc(O)cc1)C(=O)N[C@H](C(=O)N[C@@H](C)C(=O)N[C@@H](CC(=O)O)C(=O)CCl)C(C)C` [acetyl-YVAD-chloromethylketone], which death of motoneurons (motoneurons) is on record?
**A.** blocked

**Q.** For `O=C(O)CCC(=O)N[C@H]1CCc2cccc3c2N(C1=O)[C@H](C(=O)N[C@H]1CC(=O)OC1O)C3` (some centres unmarked) [Example 85], which melting point is on record?
**A.** 145 to 160 °C (dec.)

**Q.** With `O=C(O)C[C@H](NC(=O)OCc1ccccc1)C(=O)N[C@H]1CCc2cccc3c2N(C1=O)[C@H](C(=O)N[C@H]1CC(=O)OC1O)C3` (some centres unmarked) [Example 88] as the compound, how does the melting point read?
**A.** 140 to 144 °C (dec.)
